Read-outs that look alike come from different tables or passages of the source.
Experiments:
Type in all cases: cell-based, human
HTT mRNA [1] = assay: Splicing RT-qPCR assay, HTT canonical (CJ) and alternative (AJ) junction mRNA; settings: Homo sapiens, A673 or K562 cells, 24 hours compound treatment
In short: (§1)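 Read-out is the abundance of canonical-junction versus new alternative-exon-junction mRNA, determined by real-time qPCR after cDNA synthesis and normalized to a housekeeping gene. It is measured in A673 or K562 cells exposed to compounds for 24 h, top dose 10 uM.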

MYB mRNA = assay: Splicing RT-qPCR assay, MYB canonical (CJ) and alternative (AJ) junction mRNA
In short: as §1

SMN2 mRNA = assay: Splicing RT-qPCR gene panel, SMN2 canonical junction (CJ) mRNA; settings: Tables 4A/4B, read-out: SMN2 (IC50, decrease in CJ mRNA, gene panel)
Experimental: (§2) Compounds described herein were used to modulate RNA transcript abundance in cells. The expression of a target mRNA was measured by detecting the formation of an exon-exon junction in the canonical transcript (CJ). A compound mediated exon-inclusion event was detected by observing an increase in formation of a new junction with an alternative exon (AJ). Real-time qPCR assays were used to detect these splicing switches and interrogate the potency of various compounds towards different target genes. A high-throughput real time quantitative PCR (RT-qPCR) assay was developed to measure these two isoforms of the mRNA (CJ and AJ) for exemplary genes, such as HTT, SMN2, and MYB, together with a control housekeeping gene, GAPDH or GUSB or PPIA, used for normalization. Briefly, the A673 or K562 cell line was treated with various compounds described herein (e.g., compounds of Formula (I)). After treatment, the levels of the HTT, MYB, or SMN2 mRNA targets were determined from each sample of cell lysate by cDNA synthesis followed by qPCR.
(§3) The A673 cell line was cultured in DMEM with 10% FBS. Cells were diluted with full growth media and plated in a 96-well plate (15,000 cells in 100 ul media per well). The plate was incubated at 37° C. with 5% CO2 for 24 hours to allow cells to adhere. An 11-point 3-fold serial dilution of the compounds was made in DMSO then diluted in media in an intermediate plate. Compounds were transferred from the intermediate plate to the cell plate with the top dose at a final concentration of 10 uM in the well. Final DMSO concentration was kept at or below 0.25%. The cell plate was returned to the incubator at 37° C. with 5% CO2 for an additional 24 hours.
(§4) The K562 cell line was cultured in IMDM with 10% FBS. For K562, cells were diluted with full growth media and plated in either a 96-well plate (50,000 cells in 50 uL media per well) or a 384-well plate (8,000-40,000 cells in 45 uL media per well). An 11-point 3-fold serial dilution of the compounds were made in DMSO then diluted in media in an intermediate plate. Compound was transferred from the intermediate plate to the cell plate with the top dose at a final concentration of 10 uM in the well. Final DMSO concentration was kept at or below 0.25%. Final volume was 100 uL for 96-well plate and 50 uL for 384-well plate. The cell plate was then placed in an incubator at 37° C. with 5% CO2 for 24 hours.
(§5) The cells were then gently washed with 50 uL-100 uL cold PBS before proceeding to addition of lysis buffer. 30 uL-50 uL of room temperature lysis buffer with DNAse I (and optionally RNAsin) was added to each well. Cells were shaken/mixed thoroughly at room temperature for 5-10 minutes for lysis to take place and then 3 uL-5 uL of room temperature stop solution was added and wells were shaken/mixed again. After 2-5 minutes, the cell lysate plate was transferred to ice for RT-qPCR reaction setup. The lysates could also be frozen at −80° C. for later use.
(§6) In some cases, a direct lysis buffer was used. An appropriate volume of 3× lysis buffer (10 mM Tris, 150 mM NaCl, 1.5%-2.5% Igepal and 0.1-1 U/uL RNAsin, pH 7.4) was directly added to either K562 or A673 cells in media and mixed by pipetting 3 times. The plates were then incubated at room temperature with shaking/rocking for 20-50 minutes to allow for lysis to take place. After this time, the cell lysate plate was transferred to ice to set up for the RT-qPCR reactions. The lysates could also be frozen at −80° C. for later use.
(§7) To set up 10 uL RT-qPCR reactions, cell lysates were transferred to 384-well qPCR plates containing the master mix according to the table below. The plates were sealed, gently vortexed, and spun down before the run. The volumes were adjusted accordingly in some instances where the reaction was carried in 20 μL. The table below summarizes the components of the RT-qPCR reactions:
(§8) The RT-qPCR reaction was performed using a QuantStudio (ThermoFisher) under the following fast cycling conditions. […]

Target C mRNA = assay: Splicing RT-qPCR gene panel, Target C canonical junction (CJ) mRNA; settings: Tables 4A/4B, read-out: Target C (IC50, decrease in CJ mRNA, gene panel)
Experimental: as §2, §3, §4, §5, §6, §7, §8

HTT mRNA [2] = assay: Splicing RT-qPCR gene panel, HTT canonical junction (CJ) mRNA; settings: Tables 4A/4B, read-out: HTT (IC50, decrease in CJ mRNA, gene panel)
Experimental: as §2, §3, §4, §5, §6, §7, §8

[3] = Homo sapiens, Tables 4A/4B, canonical junction qPCR panel, read-out: MYB (IC50, decrease in CJ mRNA, gene panel)

Compound | IC50 (HTT mRNA [1]; 24 h, read-out: HTT CJ (IC50, decrease in canonical junction mRNA)) [nM] | AC50 (HTT mRNA [1]; read-out: HTT AJ (AC50, increase in alternative junction mRNA)) [nM] | AC50 (MYB mRNA; Homo sapiens, 24 h, A673 or K562 cells, 24 hours compound treatment, RT-qPCR, read-out: MYB AJ (AC50, increase in alternative junction mRNA)) [nM] | IC50 (MYB mRNA; Homo sapiens, 24 h, A673 or K562 cells, 24 hours compound treatment, RT-qPCR, read-out: MYB CJ (IC50, decrease in canonical junction mRNA)) [nM] | IC50 (MYB mRNA; [3]) [nM] | IC50 (SMN2 mRNA; Homo sapiens) [nM] | IC50 (Target C mRNA; Homo sapiens) [nM] | IC50 (HTT mRNA [2]; Homo sapiens) [nM] | IC50 (MYB mRNA; Tables 4A/4B, canonical junction qPCR panel, read-out: MYB (IC50, decrease in CJ mRNA, gene panel)) [nM] | IC50 (SMN2 mRNA) [nM] | IC50 (Target C mRNA) [nM] | IC50 (HTT mRNA [2]) [nM]
Cc1cn2cc(NC(=O)c3ccc(N4CC[C@@H](N(C)C)C4)c4cn(C)nc34)cc(F)c2n1 (single isomer, unassigned) [Compound 350, 4-[3-(dimethylamino)pyrrolidin-1-yl]-N-{8-fluoro-2-methylimidazo[1,2-a]pyridin-6-yl}-2-methylindazole-7-carboxamide] | 1000 to 10000 | 1000 to 10000 | < 100 | < 100 | < 100 | < 100 | > 10000 | 1000 to 10000 |  |  |  | 
Cc1cn2cc(NC(=O)c3ccc(N4CCN5CCCC5C4)c4cn(C)nc34)cc(F)c2n1 (stereo not drawn) [Compound 250] |  |  |  |  | < 100 | < 100 | 100 to 1000 | < 100 |  |  |  | 
Cc1cn2cc(NC(=O)c3ccc(N4CCC(N(C)C)CC4)c4cn(C)nc34)cc(F)c2n1 [Compound 251] |  |  |  |  | < 100 | < 100 | 1000 to 10000 | 100 to 1000 |  |  |  | 
CCNC1CCN(c2ccc(C(=O)Nc3cc(F)c4nc(C)cn4c3)c3nn(C)cc23)CC1 [Compound 252] |  |  |  |  | < 100 | < 100 | 100 to 1000 | 100 to 1000 |  |  |  | 
Cc1cn2cc(NC(=O)c3ccc(N4CCNC(C)C4)c4cn(C)nc34)cc(Cl)c2n1 (stereo not drawn) [Compound 277] |  |  |  |  | < 100 | < 100 | 1000 to 10000 | 100 to 1000 |  |  |  | 
Cc1cn2cc(NC(=O)c3ccc(N4C[C@H]5CC[C@@H](C4)N5)c4cn(C)nc34)cc(Cl)c2n1 [Compound 279] |  |  |  |  | < 100 | < 100 | 1000 to 10000 | 1000 to 10000 |  |  |  | 
CCn1cc2c(N3CCNCC3)ccc(C(=O)Nc3cc(Cl)c4nc(C)cn4c3)c2n1 [Compound 284] |  |  |  |  | < 100 | < 100 | 1000 to 10000 | 1000 to 10000 |  |  |  | 
Cc1cn2cc(NC(=O)c3ccc(N4CCNCC4)c4cn(C)nc34)cc(Cl)c2n1 [Compound 285] |  |  |  |  |  |  |  |  | < 100 | < 100 | 100 to 1000 | 100 to 1000
CCn1cc2c(N3CCNCC3)ccc(C(=O)Nc3cc(F)c4nc(C)cn4c3)c2n1 [Compound 288, 2-ethyl-N-{8-fluoro-2-methylimidazo[1,2-a]pyridin-6-yl}-4-(piperazin-1-yl)indazole-7-carboxamide] |  |  |  |  | < 100 | < 100 | 1000 to 10000 | 1000 to 10000 |  |  |  | 
Cc1cn2cc(NC(=O)c3c(F)cc(N4CCNCC4)c4cn(C)nc34)cc(F)c2n1 [Compound 361, 6-fluoro-N-{8-fluoro-2-methylimidazo[1,2-a]pyridin-6-yl}-2-methyl-4-(piperazin-1-yl) indazole-7-carboxamide] |  |  |  |  | < 100 | < 100 | < 100 | < 100 |  |  |  | 
C=Cn1cc2c(N3CCNCC3)ccc(C(=O)Nc3cc(F)c4nc(C)cn4c3)c2n1 [Compound 363, 2-ethenyl-N-{8-fluoro-2-methylimidazo[1,2-a]pyridin-6-yl}-4-(piperazin-1-yl) indazole-7-carboxamide] |  |  |  |  | < 100 | < 100 | < 100 | < 100 |  |  |  | 
Cc1cn2cc(N(C)C(=O)c3ccc(N4CCNCC4)c4cn(C)nc34)cc(F)c2n1 [Compound 386, N-{8-fluoro-2-methylimidazo[1,2-a]pyridin-6-yl}-N,2-dimethyl-4-(piperazin-1-yl) indazole-7-carboxamide] |  |  |  |  | > 10000 | > 10000 | > 10000 | > 10000 |  |  |  | 
Cc1cn2cc(NC(=O)c3ccc(N4CCC5(CC4)CCN5C)c4cn(C)nc34)cc(F)c2n1 [Compound 422, N-{8-fluoro-2-methylimidazo[1,2-a]pyridin-6-yl}-2-methyl-4-{1-methyl-1,7-diazaspiro[3.5]nonan-7-yl}indazole-7-carboxamide; bis(trifluoroacetic acid)] |  |  |  |  | < 100 | < 100 | 100 to 1000 | < 100 |  |  |  | 
CCOc1nc(NC(=O)c2ccc(N3CC[C@@H](NC)C3)c3cn(C)nc23)cn2cc(C)nc12 [Compound 433] |  |  |  |  | 100 to 1000 | < 100 | 1000 to 10000 | 1000 to 10000 |  |  |  | 
C=C(C)n1cc2c(N3CCNCC3)ccc(C(=O)Nc3cc(F)c4nc(C)cn4c3)c2n1 [Compound 440, N-{8-fluoro-2-methylimidazo[1,2-a]pyridin-6-yl}-4-(piperazin-1-yl)-2-(prop-1-en-2-yl) indazole-7-carboxamide] |  |  |  |  | < 100 | < 100 | 1000 to 10000 | < 100 |  |  |  | 
C/C=C/n1cc2c(N3CCNCC3)ccc(C(=O)Nc3cc(F)c4nc(C)cn4c3)c2n1 [Compound 445, N-{8-fluoro-2-methylimidazo[1,2-a]pyridin-6-yl}-4-(piperazin-1-yl)-2-[(1E)-prop-1-en-1-yl]indazole-7-carboxamide] |  |  |  |  | < 100 | < 100 | 100 to 1000 | < 100 |  |  |  | 
CCNC1CCN(c2cc(F)c(C(=O)Nc3cn4cc(C)nc4c(F)c3OC)c3nn(C)cc23)CC1 [Compound 471] |  |  |  |  | < 100 | < 100 | < 100 | < 100 |  |  |  | 
